Key:
[1] = target: T1, E3 ubiquitin-protein ligase CBL-B (Homo sapiens, UniProt Q13191); assay: Inhibition of biotinylated recombinant Cbl-b (36 to 427 residues)(unknown origin) expressed in Escherichia coli BL21(DE3) Tuner cells using a FAM-labeled probe by TR-FRET assay
[2] = Lipophilicity, logD of compound at pH 7.4; format: physicochemical; settings: buffer
[3] = target: E3 ubiquitin-protein ligase CBL (Homo sapiens, UniProt P22681); assay: Inhibition of cCbl (unknown origin) by TR-FRET assay
[4] = Stability in human liver microsome assessed as intrinsic clearance; format: ADME; settings: liver microsomes, read-out: CLH
[5] = target: T1, E3 ubiquitin-protein ligase CBL-B; assay: Inhibition of biotinylated recombinant Cbl-b (36 to 427 residues)(unknown origin) expressed in Escherichia coli BL21(DE3) Tuner cells assessed as decrease in Cbl-b auto-ubiquitination incubated for 60 mins in presence of Ub-FITC/ATP by TR-FRET assay
[6] = target: T1, E3 ubiquitin-protein ligase CBL-B; assay: Inhibition of biotinylated recombinant Cbl-b (36 to 427 residues)(unknown origin) expressed in Escherichia coli BL21(DE3) Tuner cells assessed as decrease in ZAP70 ubiquitination incubated for 60 mins in presence of Ub-FITC/ATP by TR-FRET assay
[7] = Induction of IL-2 production in human T cells; format: functional, cell-based, T-cell
[8] = Clearance in rat hepatocytes assessed as measured per million cells at 0.1 to 1 uM measured for 120 mins by LC-MS/MS analysis; format: ADME, cell-based, Hepatocyte; settings: dose 0.1-1 µM
[9] = Clearance in human hepatocytes assessed as measured per million cells at 0.1 to 1 uM measured for 120 mins by LC-MS/MS analysis; format: ADME, cell-based, Hepatocyte; settings: dose 0.1-1 µM, read-out: CLH
[10] = Clearance in CD1 mouse at 0.5 mg/kg, iv measured for 24 hrs by LC-MS/MS analysis; format: ADME, organism-based; settings: in vivo
[11] = Oral bioavailability in CD1 mouse at 1 mg/kg measured for 24 hrs by LC-MS/MS analysis; format: ADME, organism-based; settings: in vivo
[12] = Half life in Wistar Han rat at 0.5 mg/kg, iv measured for 24 hrs by LC-MS/MS analysis; format: ADME, organism-based; settings: in vivo
[13] = AUC (infinity) in CD1 mouse at 1 mg/kg, po measured for 24 hrs by LC-MS/MS analysis; format: ADME, organism-based; settings: in vivo
[14] = Tmax in Wistar Han rat at 1 mg/kg, po measured for 24 hrs by LC-MS/MS analysis; format: ADME, organism-based; settings: in vivo
[15] = Clearance in Wistar Han rat at 0.5 mg/kg, iv measured for 24 hrs by LC-MS/MS analysis; format: ADME, organism-based; settings: in vivo
[16] = Volume of distribution at steady state in Wistar Han rat at 0.5 mg/kg, iv measured for 24 hrs by LC-MS/MS analysis; format: ADME, organism-based; settings: in vivo, read-out: Vdss
[17] = Half life in CD1 mouse at 0.5 mg/kg, iv measured for 24 hrs by LC-MS/MS analysis; format: ADME, organism-based; settings: in vivo
[18] = Tmax in CD1 mouse at 1 mg/kg, po measured for 24 hrs by LC-MS/MS analysis; format: ADME, organism-based; settings: in vivo
[19] = Volume of distribution at steady state in CD1 mouse at 0.5 mg/kg, iv measured for 24 hrs by LC-MS/MS analysis; format: ADME, organism-based; settings: in vivo, read-out: Vdss
[20] = Cmax in CD1 mouse at 1 mg/kg, po measured for 24 hrs by LC-MS/MS analysis; format: ADME, organism-based; settings: in vivo
[21] = AUC (infinity) in Wistar Han rat at 1 mg/kg, po measured for 24 hrs by LC-MS/MS analysis; format: ADME, organism-based; settings: in vivo
[22] = Oral bioavailability in Wistar Han rat at 1 mg/kg measured for 24 hrs by LC-MS/MS analysis; format: ADME, organism-based; settings: in vivo
[23] = Cmax in Wistar Han rat at 1 mg/kg, po measured for 24 hrs by LC-MS/MS analysis; format: ADME, organism-based; settings: in vivo

T1 sequence (Q13191 whole entry, the tested form may be a part): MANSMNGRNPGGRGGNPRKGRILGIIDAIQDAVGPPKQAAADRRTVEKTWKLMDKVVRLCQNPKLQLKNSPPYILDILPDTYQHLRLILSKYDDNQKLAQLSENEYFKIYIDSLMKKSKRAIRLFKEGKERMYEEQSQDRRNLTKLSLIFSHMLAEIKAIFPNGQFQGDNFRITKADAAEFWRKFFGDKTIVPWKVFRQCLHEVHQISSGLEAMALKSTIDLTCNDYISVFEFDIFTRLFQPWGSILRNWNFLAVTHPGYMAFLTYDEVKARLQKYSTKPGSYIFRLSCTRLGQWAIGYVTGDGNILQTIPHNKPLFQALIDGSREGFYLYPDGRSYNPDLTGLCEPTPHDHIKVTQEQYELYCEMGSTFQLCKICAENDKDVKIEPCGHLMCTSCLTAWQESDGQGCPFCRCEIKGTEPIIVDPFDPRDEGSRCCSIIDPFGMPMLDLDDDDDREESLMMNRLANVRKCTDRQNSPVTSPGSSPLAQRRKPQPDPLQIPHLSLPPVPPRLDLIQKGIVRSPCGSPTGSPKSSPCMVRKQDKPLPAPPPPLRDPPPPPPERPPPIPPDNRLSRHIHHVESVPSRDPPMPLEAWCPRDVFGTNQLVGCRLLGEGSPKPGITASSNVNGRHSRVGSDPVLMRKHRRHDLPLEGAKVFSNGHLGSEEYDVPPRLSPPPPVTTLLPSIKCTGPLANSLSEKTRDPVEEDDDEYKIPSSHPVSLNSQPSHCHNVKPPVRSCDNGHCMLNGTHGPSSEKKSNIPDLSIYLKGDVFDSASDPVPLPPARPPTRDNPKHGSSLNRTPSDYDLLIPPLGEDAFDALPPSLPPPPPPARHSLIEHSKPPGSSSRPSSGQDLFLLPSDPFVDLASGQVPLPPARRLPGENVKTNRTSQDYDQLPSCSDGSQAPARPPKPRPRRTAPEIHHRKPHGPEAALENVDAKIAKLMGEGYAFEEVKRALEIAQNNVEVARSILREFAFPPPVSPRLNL

Row | IC50 [1] | logD [2] | IC50 [3] | microsomal CLint [4] | EC50 ([7]; Homo sapiens, T-cell) | hepatocyte CLint at up to 1 µM [8] | SMILES | also measured
1 | 360 nM | 2.4 | 1340 nM | 29 µL/min/mg | – | – | Cn1cnnc1[C@]1(c2cccc(-c3cc(C4CC4)c[nH]c3=O)c2)C[C@H](C)C1 | –
2 | – | – | – | – | – | – | C[C@@H](COCCC(=O)N1CCN2c3ncc(C(F)(F)F)cc3NC(=O)C2C1)Nc1cn[nH]c(=O)c1C(F)(F)F (stereo partly drawn) | IC50 [5]: 30.7 nM; IC50 [6]: 26.9 nM
3 | 160 nM | 1.1 | 960 nM | 6.8 µL/min/mg | > 30000 nM | – | Cn1cnnc1C[C@]1(c2cccc(-c3cc(C(F)(F)F)c[nH]c3=O)c2)C[C@H](C#N)C1 | –
4 | 74 nM | 1.3 | 460 nM | 47 µL/min/mg | 16700 nM | 13 µL/min/1e6 cells | CN1CCC(Cn2cc(C(F)(F)F)cc(-c3cccc([C@]4(c5nncn5C)C[C@@H](C)C4)c3)c2=O)CC1 | –
5 | 340 nM | 2.1 | 2200 nM | 14 µL/min/mg | 3980 nM | – | Cn1cnnc1C1(c2cccc(-c3cc(C(F)(F)F)c[nH]c3=O)c2)CCC1 | –
6 | 50 nM | 2.4 | 190 nM | 130 µL/min/mg | 2530 nM | 32 µL/min/1e6 cells | Cn1cnc(Cn2cc(C(F)(F)F)cc(-c3cccc([C@]4(c5nncn5C)C[C@@H](C)C4)c3)c2=O)c1 | –
7 | 40 nM | 2.2 | 50 nM | 85 µL/min/mg | 440 nM | 12 µL/min/1e6 cells | C[C@@H](C#N)n1cc(C(F)(F)F)cc(-c2cccc([C@]3(c4nncn4C)C[C@@H](C)C3)c2)c1=O | –
8 | > 100000 nM | 4.4 | > 100000 nM | 21 µL/min/mg | – | – | Cn1cnnc1[C@]1(c2cccc(-c3cc(C(F)(F)F)ccc3O)c2)C[C@H](C)C1 | –
9 | 2680 nM | 1.5 | 11600 nM | 9.7 µL/min/mg | – | – | COc1c[nH]c(=O)c(-c2cccc([C@]3(c4nncn4C)C[C@@H](C)C3)c2)c1 | –
10 | 50 nM | 1.1 | 330 nM | 13 µL/min/mg | 10800 nM | 2.4 µL/min/1e6 cells | CN1CC[C@H](Cn2cc(C(F)(F)F)cc(-c3cccc([C@]4(c5nncn5C)C[C@@H](C)C4)c3)c2=O)C1 | –
11 | 40 nM | 2.7 | 200 nM | 200 µL/min/mg | 3000 nM | 9.7 µL/min/1e6 cells | Cn1cc(Cn2cc(C(F)(F)F)cc(-c3cccc([C@]4(c5nncn5C)C[C@@H](C)C4)c3)c2=O)cn1 | –
12 | 70 nM | 1.7 | 330 nM | 29 µL/min/mg | 2860 nM | 7.8 µL/min/1e6 cells | Cc1nnc(Cn2cc(C(F)(F)F)cc(-c3cccc([C@]4(c5nncn5C)C[C@@H](C)C4)c3)c2=O)o1 | hepatocyte CLint at up to 1 µM [9]: 1.7 µL/min/1e6 cells
13 | 34 nM | 3.3 | 160 nM | 76 µL/min/mg | 850 nM | 21 µL/min/1e6 cells | CC#CCn1cc(C(F)(F)F)cc(-c2cccc([C@]3(c4nncn4C)C[C@@H](C)C3)c2)c1=O | –
14 | 310 nM | 2.6 | 1700 nM | 3 µL/min/mg | – | – | Cn1cnnc1[C@]1(c2cccc(-c3cc(OC(F)(F)F)c[nH]c3=O)c2)C[C@H](C)C1 | –
15 | 190 nM | 3.8 | 860 nM | 83 µL/min/mg | – | – | Cn1cc(C(F)(F)F)c2cc(-c3cccc([C@]4(c5nncn5C)C[C@@H](C)C4)c3)c(=O)[nH]c21 | –
16 | 30 nM | 3.9 | 40 nM | 190 µL/min/mg | 460 nM | 24 µL/min/1e6 cells | CC#C[C@H](C)n1cc(C(F)(F)F)cc(-c2cccc([C@]3(c4nncn4C)C[C@@H](C)C3)c2)c1=O | –
17 | 84 nM | 3.58 | 580 nM | 2.5 µL/min/mg | – | 16 µL/min/1e6 cells | Cn1cnnc1[C@]1(c2cccc(-c3cc(C(F)(F)F)c[nH]c3=O)c2)C[C@H](C)C1 | –
18 | 59 nM | 2.5 | 410 nM | 25 µL/min/mg | 5290 nM | – | Cn1cnnc1[C@@H](c1cccc(-c2cc(C(F)(F)F)c[nH]c2=O)c1)C1CCC1 (racemic) | –
19 | 30 nM | 2.3 | 40 nM | 79 µL/min/mg | 1680 nM | 8.1 µL/min/1e6 cells | Cn1cc(Cn2cc(C(F)(F)F)cc(-c3cccc([C@]4(c5nncn5C)C[C@@H](C)C4)c3)c2=O)nn1 | –
20 | 145 nM | 2.4 | 880 nM | 37 µL/min/mg | 5890 nM | 16 µL/min/1e6 cells | Cn1cc(C(F)(F)F)cc(-c2cccc([C@]3(c4nncn4C)C[C@@H](C)C3)c2)c1=O | –
21 | 1470 nM | 2.6 | 6300 nM | 3 µL/min/mg | – | – | Cc1c[nH]c(=O)c(-c2cccc([C@]3(c4nncn4C)C[C@@H](C)C3)c2)c1 | –

Row | SMILES | IC50 [1] | logD [2] | IC50 [3] | microsomal CLint [4] | EC50 ([7]; Homo sapiens, T-cell) | hepatocyte CLint at up to 1 µM [8] | also measured
22 | C[C@H](c1cnn(C)c1)n1cc(C(F)(F)F)cc(-c2cccc([C@]3(c4nncn4C)C[C@@H](C)C3)c2)c1=O | – | 2.9 | – | 220 µL/min/mg | 590 nM | 21 µL/min/1e6 cells | –
23 | Cn1cnnc1[C@]1(c2cccc(-c3nc(C(F)(F)F)c[nH]c3=O)c2)C[C@H](C)C1 | 890 nM | 2.1 | 6550 nM | 15 µL/min/mg | – | – | –
24 | C[C@@H](c1cnn(C)c1)n1cc(C(F)(F)F)cc(-c2cccc([C@]3(c4nncn4C)C[C@@H](C)C3)c2)c1=O | – | 2.8 | – | 160 µL/min/mg | – | 6.4 µL/min/1e6 cells | EC50 ([7]; t-cell): 230 nM; clearance [10]: 100 mL/min/kg; bioavailability [11]: 19%; half-life [12]: 27 min; AUC(0-inf) [13]: 30 ng·h/mL; Tmax [14]: 45 min; clearance [15]: 55 mL/min/kg; Vd [16]: 1.6 L/kg; half-life [17]: 18 min; Tmax [18]: 4.98 min; Vd [19]: 1.3 L/kg; Cmax [20]: 35 ng/mL; AUC(0-inf) [21]: 46 ng·h/mL; hepatocyte CLint at up to 1 µM [9]: 8.7 µL/min/1e6 cells; bioavailability [22]: 15%; Cmax [23]: 21 ng/mL
25 | Cn1cnnc1[C@]1(c2cccc(-n3cc(C(F)(F)F)ccc3=O)c2)C[C@H](C)C1 | 2100 nM | 1.6 | 10300 nM | 15 µL/min/mg | – | – | –

— ChEMBL document CHEMBL5537183, “Discovery, Optimization, and Biological Evaluation of Arylpyridones as Cbl-b Inhibitors” (J Med Chem, 2024)
